Legend:
[1] = molar heat capacity at saturation pressure; conditions: Vacuum adiabatic calorimetry
[2] = for vapor or sublimation pressure: Inclined piston gauge
[3] = molar heat capacity at constant pressure; conditions: 101.33 kPa, Vacuum adiabatic calorimetry
[4] = Molar enthalpy of transition or fusion; conditions: Crystal; Adiabatic calorimetry

c1ccc2nc3ccccc3nc2c1 [phenazine]
Conditions	Triple point temperature [K]	molar heat capacity [J/K/mol]	molar heat capacity at constant pressure [J/K/mol]	vapor or sublimation pressure [kPa]
[1], 6.135 K, Crystal	–	0.71	–	–
[1], 7.091 K, Crystal	–	1.09	–	–
[1], 8.146 K, Crystal	–	1.57	–	–
[1], 9.073 K, Crystal	–	2.09	–	–
[1], 9.999 K, Crystal	–	2.77	–	–
[1], 11.1 K, Crystal	–	3.68	–	–
[1], 12.32 K, Crystal	–	4.78	–	–
[1], 13.68 K, Crystal	–	6.14	–	–
[1], 15.19 K, Crystal	–	7.78	–	–
[1], 16.85 K, Crystal	–	9.645	–	–
[1], 18.69 K, Crystal	–	11.81	–	–
[1], 20.75 K, Crystal	–	14.23	–	–
[1], 23.04 K, Crystal	–	16.99	–	–
[1], 25.58 K, Crystal	–	20	–	–
[1], 28.4 K, Crystal	–	23.28	–	–
[1], 31.54 K, Crystal	–	26.77	–	–
[1], 35.04 K, Crystal	–	30.43	–	–
[1], 38.95 K, Crystal	–	34.21	–	–
[1], 43.3 K, Crystal	–	38.1	–	–
[1], 48.12 K, Crystal	–	42.05	–	–
[1], 52.7 K, Crystal	–	45.41	–	–
[1], 53.49 K, Crystal	–	46.07	–	–
[1], 57.63 K, Crystal	–	48.91	–	–
[1], 59.46 K, Crystal	–	50.14	–	–
[1], 63.45 K, Crystal	–	52.68	–	–
[1], 69.82 K, Crystal	–	56.56	–	–
[1], 76.91 K, Crystal	–	60.58	–	–
[1], 84.71 K, Crystal	–	64.9	–	–
[1], 93.41 K, Crystal	–	69.64	–	–
[1], 102.69 K, Crystal	–	74.69	–	–
[1], 112.24 K, Crystal	–	79.93	–	–
[1], 121.98 K, Crystal	–	85.34	–	–
[1], 131.78 K, Crystal	–	90.96	–	–
[1], 141.72 K, Crystal	–	96.78	–	–
[1], 148.27 K, Crystal	–	100.69	–	–
[1], 151.74 K, Crystal	–	102.79	–	–
[1], 157 K, Crystal	–	106	–	–
[1], 161.79 K, Crystal	–	108.99	–	–
[1], 166.83 K, Crystal	–	112.14	–	–
[1], 176.79 K, Crystal	–	118.44	–	–
[1], 186.88 K, Crystal	–	124.97	–	–
[1], 197.06 K, Crystal	–	131.7	–	–
[1], 207.29 K, Crystal	–	138.54	–	–
[1], 217.54 K, Crystal	–	145.45	–	–
[1], 227.79 K, Crystal	–	152.5	–	–
[1], 238.02 K, Crystal	–	159.59	–	–
[1], 248.23 K, Crystal	–	166.76	–	–
[1], 258.43 K, Crystal	–	173.9	–	–
[1], 268.62 K, Crystal	–	181.08	–	–
[1], 278.79 K, Crystal	–	188.12	–	–
[1], 288.98 K, Crystal	–	195.25	–	–
[1], 292.45 K, Crystal	–	197.59	–	–
[1], 299.09 K, Crystal	–	202.31	–	–
[1], 303.14 K, Crystal	–	205.11	–	–
[1], 315.26 K, Crystal	–	213.62	–	–
[1], 327.34 K, Crystal	–	221.93	–	–
[1], 339.58 K, Crystal	–	230.27	–	–
[1], 341.22 K, Crystal	–	231.31	–	–
[1], 351.33 K, Crystal	–	238.27	–	–
[1], 362.68 K, Crystal	–	245.89	–	–
[1], 375.17 K, Crystal	–	254.22	–	–
[1], 383.74 K, Crystal	–	259.84	–	–
[1], 387.73 K, Crystal	–	262.47	–	–
[1], 394.22 K, Crystal	–	266.7	–	–
[1], 400.35 K, Crystal	–	270.7	–	–
[1], 404.56 K, Crystal	–	273.47	–	–
[1], 413.04 K, Crystal	–	278.97	–	–
[1], 415.93 K, Crystal	–	280.86	–	–
[1], 426.29 K, Crystal	–	287.62	–	–
[1], 428.38 K, Crystal	–	288.92	–	–
[1], 438.38 K, Crystal	–	296.29	–	–
[1], 439.14 K, Crystal	–	296.66	–	–
[1], 453.29 K, Liquid	–	334.17	–	–
[1], 455.84 K, Liquid	–	335.26	–	–
[1], 456.63 K, Liquid	–	335.61	–	–
[1], 460.6 K, Liquid	–	337.14	–	–
[1], 461.49 K, Liquid	–	337.63	–	–
[1], 475.45 K, Liquid	–	343.31	–	–
[1], 490.19 K, Liquid	–	349.18	–	–
[1], 504.28 K, Liquid	–	354.75	–	–
[1], 510.36 K, Liquid	–	357.26	–	–
[1], 516.76 K, Liquid	–	359.48	–	–
[2], 389.95 K, Crystal	–	–	–	0.0331
[2], 400.01 K, Crystal	–	–	–	0.0682
[2], 410 K, Crystal	–	–	–	0.1346
[2], 420 K, Crystal	–	–	–	0.2572
[2], 430 K, Crystal	–	–	–	0.476
[2], 449.96 K, Liquid	–	–	–	1.444
[2], 454.97 K, Liquid	–	–	–	1.754
[2], 460.06 K, Liquid	–	–	–	2.127
[2], 464.96 K, Liquid	–	–	–	2.548
[2], 469.96 K, Liquid	–	–	–	3.05
[2], 471.96 K, Liquid	–	–	–	3.273
[2], Crystal, Adiabatic calorimetry	447.91	–	–	–
[3], 5 K, Crystal	–	–	0.38	–
[3], 10 K, Crystal	–	–	2.76	–
[3], 20 K, Crystal	–	–	13.34	–
[3], 30 K, Crystal	–	–	25.08	–
[3], 40 K, Crystal	–	–	35.19	–
[3], 50 K, Crystal	–	–	43.5	–
[3], 60 K, Crystal	–	–	50.49	–
[3], 70 K, Crystal	–	–	56.66	–
[3], 80 K, Crystal	–	–	62.3	–
[3], 90 K, Crystal	–	–	67.8	–
[3], 100 K, Crystal	–	–	73.23	–
[3], 120 K, Crystal	–	–	84.23	–
[3], 140 K, Crystal	–	–	95.77	–
[3], 160 K, Crystal	–	–	107.87	–
[3], 180 K, Crystal	–	–	120.51	–
[3], 200 K, Crystal	–	–	133.66	–
[3], 220 K, Crystal	–	–	147.13	–
[3], 240 K, Crystal	–	–	160.98	–
[3], 260 K, Crystal	–	–	175.01	–
[3], 280 K, Crystal	–	–	188.99	–
[3], 298.15 K, Crystal	–	–	201.63	–
[3], 300 K, Crystal	–	–	202.93	–
[3], 320 K, Crystal	–	–	216.89	–
[3], 340 K, Crystal	–	–	230.56	–
[3], 360 K, Crystal	–	–	244.06	–
[3], 380 K, Crystal	–	–	257.36	–
[3], 400 K, Crystal	–	–	270.46	–
[3], 420 K, Crystal	–	–	283.41	–
[3], 440 K, Crystal	–	–	296.01	–
[3], 447.91 K, Crystal	–	–	300.87	–
[3], 447.91 K, Liquid	–	–	331.96	–
[3], 460 K, Liquid	–	–	337	–
[3], 480 K, Liquid	–	–	345.14	–
[3], 500 K, Liquid	–	–	353.07	–
[3], 520 K, Liquid	–	–	360.67	–

Conditions	Molar enthalpy of transition or fusion [kcal/mol]
[4]	5.956

Source: the NIST ThermoML archive (doi:10.1016/j.jct.2009.11.010)
